Source: patent US10947271B2, “Antibacterial agents” (THE UNIVERSITY OF QUEENSLAND, priority 2014, dated 2021)

Experiments:
Assay type in all cases: cell-based
Conditions in all cases: 24 h incubation, visual reading
[1] = system: Streptococcus pneumoniae MDR ATCC 700677; assay: MIC assay, S. pneumoniae MDR ATCC 700677
Protocol: (§1) Antimicrobial activity of compounds was tested against a number of bacterial strains, including Staphylococcus aureus (MRSA ATCC 43300, GISA NRS17, VISA NRS1, MRSA clinical isolate, daptomycin resistant clinical isolate), Streptococcus pneumoniae (MDR ATCC 700677), Enterococcus faecalis (VanA clinical isolate) and Enterococcus faecium (MDR Van A ATCC 51559).
(§2) All compounds were prepared to 160 μg/ml solution in water from a stock solution of 1 mM concentration.
(§3) The compounds, along with standard antibiotics were serially diluted twofold across the wells of 96-well non-binding surface plates (NBS, Corning). Standards ranged from 64 μg/ml to 0.03 μg/ml and compounds from 8 μg/ml to 0.003 μg/ml with final volumes of 50 μL per well. Gram positive bacteria were cultured in Muller Hinton broth (MHB) (Bacto laboratories, Cat. no. 211443) at 37° C. overnight. A sample of each culture was then diluted 40-fold in fresh MHB broth and incubated at 37° C. for 2-3 hrs. The resultant mid-log phase cultures were diluted to the final concentration of 5×10e5 CFU/mL, then 50 μL was added to each well of the compound-containing 96-well plates. All the plates were covered and incubated at 37° C. for 24 h. MICs were the lowest concentration showing no visible growth.
(§4) MICs were determined visually at 24 hr incubation and the MIC was defined as the lowest concentration with which no growth was visible after incubation. Both MIC and MBC were determined by visual inspection only.

[2] = system: Enterococcus faecium MDR Van A ATCC 51559; assay: MIC assay, E. faecium MDR Van A ATCC 51559
Protocol: as §1, §2, §3, §4

[3] = system: Staphylococcus aureus MRSA ATCC 43300; assay: MIC assay, S. aureus MRSA ATCC 43300
Protocol: as §1, §2, §3, §4

SMILES | Minimum Inhibitory Concentration (MIC) S. pneumoniae ATCC 700677 [1] | Minimum Inhibitory Concentration (MIC) E. faecium ATCC51559 [2] | Minimum Inhibitory Concentration (MIC) Staph. aureus ATCC43300 [3]
CCCCCCCNc1ccc(C(=O)N[C@@H](CCCCN)C(=O)N[C@@H](CCCCN)C(=O)N[C@@H](CCCCNC(=O)[C@H]2NC(=O)[C@H]3NC(=O)[C@H](NC(=O)[C@@H]4NC(=O)[C@H](CC(N)=O)NC(=O)[C@H](NC(=O)[C@@H](CC(C)C)NC)[C@H](O)c5ccc(c(Cl)c5)Oc5cc4cc(c5O[C@@H]4O[C@H](CO)[C@@H](O)[C@H](O)[C@H]4O[C@H]4C[C@](C)(N)[C@H](O)[C@H](C)O4)Oc4ccc(cc4Cl)[C@H]3O)c3ccc(O)c(c3)-c3c(O)cc(O)cc32)C(N)=O)cc1 [MCC_004821] | xxxx (xxxx = 0.01-<0.1) | xx (xx = 1-4) | xxxx (xxxx = 0.01-<0.1)
CCCCCCCCCC(=O)N[C@@H](CCCNC(=N)N)C(=O)N1CCC(CNC(=O)[C@H]2NC(=O)[C@H]3NC(=O)[C@H](NC(=O)[C@@H]4NC(=O)[C@H](CC(N)=O)NC(=O)[C@H](NC(=O)[C@@H](CC(C)C)NC)[C@H](O)c5ccc(c(Cl)c5)Oc5cc4cc(c5O[C@@H]4O[C@H](CO)[C@@H](O)[C@H](O)[C@H]4O[C@H]4C[C@](C)(N)[C@H](O)[C@H](C)O4)Oc4ccc(cc4Cl)[C@H]3O)c3ccc(O)c(c3)-c3c(O)cc(O)cc32)CC1 [MCC_005484] | xxxxx (xxxxx = <0.01) | x (x = >4) | xxxxx (xxxxx = <0.01)
CCCCCCCCCN1CCC(C(=O)N[C@@H](CCCCN)C(=O)N[C@@H](CCCCN)C(=O)NCCCNC(=O)[C@H]2NC(=O)[C@H]3NC(=O)[C@H](NC(=O)[C@@H]4NC(=O)[C@H](CC(N)=O)NC(=O)[C@H](NC(=O)[C@@H](CC(C)C)NC)[C@H](O)c5ccc(c(Cl)c5)Oc5cc4cc(c5O[C@@H]4O[C@H](CO)[C@@H](O)[C@H](O)[C@H]4O[C@H]4C[C@](C)(N)[C@H](O)[C@H](C)O4)Oc4ccc(cc4Cl)[C@H]3O)c3ccc(O)c(c3)-c3c(O)cc(O)cc32)CC1 [MCC_000937] | xxxx (xxxx = 0.01-<0.1) | xx (xx = 1-4) | xxxx (xxxx = 0.01-<0.1)
CCCCCCCCC(=O)N[C@@H](CCCCN(C)C)C(=O)N[C@@H](CCCCNC(=O)[C@H]1NC(=O)[C@H]2NC(=O)[C@H](NC(=O)[C@@H]3NC(=O)[C@H](CC(N)=O)NC(=O)[C@H](NC(=O)[C@@H](CC(C)C)NC)[C@H](O)c4ccc(c(Cl)c4)Oc4cc3cc(c4O[C@@H]3O[C@H](CO)[C@@H](O)[C@H](O)[C@H]3O[C@H]3C[C@](C)(N)[C@H](O)[C@H](C)O3)Oc3ccc(cc3Cl)[C@H]2O)c2ccc(O)c(c2)-c2c(O)cc(O)cc21)C(=O)O [MCC_007386] | xx (xx = 1-4) | x (x = >4) | xx (xx = 1-4)
CNC(=O)C(CCCCNC(=O)C1NC(=O)C2NC(=O)C(NC(=O)C3NC(=O)C(CC(N)=O)NC(=O)C(NC(=O)C(CC(C)C)NC)C(O)c4ccc(c(Cl)c4)Oc4cc3cc(c4OC3OC(CO)C(O)C(O)C3OC3CC(C)(N)C(O)C(C)O3)Oc3ccc(cc3Cl)C2O)c2ccc(O)c(c2)-c2c(O)cc(O)cc21)NC(=O)C(CCCCN)NC(=O)C(CCCCN)NC(=O)CCCOc1ccccc1 (stereo not drawn) [MCC_000505] | xx (xx = 1-4) | x (x = >4) | xxx (xxx = 0.1-<1)
CCCCCCCCCCCCCC(=O)NC(CCCCN)C(=O)NC(CCCCN)C(=O)NC(CCCCN)C(=O)NC(CCCCNC(=O)C1NC(=O)C2NC(=O)C(NC(=O)C3NC(=O)C(CC(N)=O)NC(=O)C(NC(=O)C(CC(C)C)NC)C(O)c4ccc(c(Cl)c4)Oc4cc3cc(c4OC3OC(CO)C(O)C(O)C3OC3CC(C)(N)C(O)C(C)O3)Oc3ccc(cc3Cl)C2O)c2ccc(O)c(c2)-c2c(O)cc(O)cc21)C(=O)OC (stereo not drawn) [MCC_000635] | xxxxx (xxxxx = <0.01) | xxxxx (xxxxx = <0.01) | xxxxx (xxxxx = <0.01)
CCC(=O)N[C@@H](CCCCN)C(=O)N[C@@H](CCCCN)C(=O)N[C@@H](CCCCNC(=O)[C@H]1NC(=O)[C@H]2NC(=O)[C@H](NC(=O)[C@@H]3NC(=O)[C@H](CC(N)=O)NC(=O)[C@H](NC(=O)[C@@H](CC(C)C)NC)[C@H](O)c4ccc(c(Cl)c4)Oc4cc3cc(c4O[C@@H]3O[C@H](CO)[C@@H](O)[C@H](O)[C@H]3O[C@H]3C[C@](C)(N)[C@H](O)[C@H](C)O3)Oc3ccc(cc3Cl)[C@H]2O)c2ccc(O)c(c2)-c2c(O)cc(O)cc21)C(=O)O [MCC_005388] | x (x = >4) | x (x = >4) | xx (xx = 1-4)
CNC(=O)C(CCCCNC(=O)C1NC(=O)C2NC(=O)C(NC(=O)C3NC(=O)C(CC(N)=O)NC(=O)C(NC(=O)C(CC(C)C)NC)C(O)c4ccc(c(Cl)c4)Oc4cc3cc(c4OC3OC(CO)C(O)C(O)C3OC3CC(C)(N)C(O)C(C)O3)Oc3ccc(cc3Cl)C2O)c2ccc(O)c(c2)-c2c(O)cc(O)cc21)NC(=O)C(CCCCN)NC(=O)C(CCCCN)NC(=O)CCCCCc1ccccc1 (stereo not drawn) [MCC_000507] | xxx (xxx = 0.1-<1) | x (x = >4) | xxx (xxx = 0.1-<1)
CNC(=O)C(CCCCNC(=O)C1NC(=O)C2NC(=O)C(NC(=O)C3NC(=O)C(CC(N)=O)NC(=O)C(NC(=O)C(CC(C)C)NC)C(O)c4ccc(c(Cl)c4)Oc4cc3cc(c4OC3OC(CO)C(O)C(O)C3OC3CC(C)(N)C(O)C(C)O3)Oc3ccc(cc3Cl)C2O)c2ccc(O)c(c2)-c2c(O)cc(O)cc21)NC(=O)C(CCCCN)NC(=O)C(CCCCN)NC(=O)c1ccc(Oc2ccc(F)cc2)cc1 (stereo not drawn) [MCC_000514] | xxx (xxx = 0.1-<1) | x (x = >4) | xxx (xxx = 0.1-<1)
CCCCCCCCCCCC(=O)N[C@@H](CCCCN)C(=O)N[C@@H](CCCCN)C(=O)N[C@@H](CCCCN)C(=O)N[C@@H](CCCCNC(=O)[C@H]1NC(=O)[C@H]2NC(=O)[C@H](NC(=O)[C@@H]3NC(=O)[C@H](CC(N)=O)NC(=O)[C@H](NC(=O)[C@@H](CC(C)C)NC)[C@H](O)c4ccc(c(Cl)c4)Oc4cc3cc(c4O[C@@H]3O[C@H](CO)[C@@H](O)[C@H](O)[C@H]3O[C@H]3C[C@](C)(N)[C@H](O)[C@H](C)O3)Oc3ccc(cc3Cl)[C@H]2O)c2ccc(O)c(c2)-c2c(O)cc(O)cc21)C(=O)O [MCC_000348] | xxxxx (xxxxx = <0.01) | xxx (xxx = 0.1-<1) | xxxxx (xxxxx = <0.01)
CCCCCCCCC(=O)N[C@@H](CCCCN)C(=O)N[C@@H](CCCCN)C(=O)NCCCNC(=O)[C@H]1NC(=O)[C@H]2NC(=O)[C@H](NC(=O)[C@@H]3NC(=O)[C@H](CC(N)=O)NC(=O)[C@H](NC(=O)[C@@H](CC(C)C)NC)[C@H](O)c4ccc(c(Cl)c4)Oc4cc3cc(c4O[C@@H]3O[C@H](CO)[C@@H](O)[C@H](O)[C@H]3O[C@H]3C[C@](C)(N)[C@H](O)[C@H](C)O3)Oc3ccc(cc3Cl)[C@H]2O)c2ccc(O)c(c2)-c2c(O)cc(O)cc21 [MCC_005199] | xxxx (xxxx = 0.01-<0.1) | xx (xx = 1-4) | xxxx (xxxx = 0.01-<0.1)
CCCCCCCCCCC(=O)NC(CCCCN(C)C)C(=O)NCCCNC(=O)C1NC(=O)C2NC(=O)C(NC(=O)C3NC(=O)C(CC(N)=O)NC(=O)C(NC(=O)C(CC(C)C)NC)C(O)c4ccc(c(Cl)c4)Oc4cc3cc(c4OC3OC(CO)C(O)C(O)C3OC3CC(C)(N)C(O)C(C)O3)Oc3ccc(cc3Cl)C2O)c2ccc(O)c(c2)-c2c(O)cc(O)cc21 (stereo not drawn) [MCC_007340] | xxxx (xxxx = 0.01-<0.1) | xx (xx = 1-4) | xxxxx (xxxxx = <0.01)
CN[C@H](CC(C)C)C(=O)N[C@H]1C(=O)N[C@@H](CC(N)=O)C(=O)N[C@H]2C(=O)N[C@H]3C(=O)N[C@H](C(=O)N[C@H](C(=O)NCCCC[C@H](NC(=O)[C@H](CCCCN)NC(=O)[C@H](CCCCN)NC(=O)CC4CCCCC4)C(=O)O)c4cc(O)cc(O)c4-c4cc3ccc4O)[C@H](O)c3ccc(c(Cl)c3)Oc3cc2cc(c3O[C@@H]2O[C@H](CO)[C@@H](O)[C@H](O)[C@H]2O[C@H]2C[C@](C)(N)[C@H](O)[C@H](C)O2)Oc2ccc(cc2Cl)[C@H]1O [MCC_005502] | xx (xx = 1-4) | x (x = >4) | xx (xx = 1-4)
CNC(=O)C(CCCCNC(=O)C1NC(=O)C2NC(=O)C(NC(=O)C3NC(=O)C(CC(N)=O)NC(=O)C(NC(=O)C(CC(C)C)NC)C(O)c4ccc(c(Cl)c4)Oc4cc3cc(c4OC3OC(CO)C(O)C(O)C3OC3CC(C)(N)C(O)C(C)O3)Oc3ccc(cc3Cl)C2O)c2ccc(O)c(c2)-c2c(O)cc(O)cc21)NC(=O)C(CCCCN)NC(=O)C(CCCCN)NC(=O)CCCCCCCCCc1ccccc1 (stereo not drawn) [MCC_000510] | xxxxxx | xx (xx = 1-4) | xxxx (xxxx = 0.01-<0.1)
